Assay [1] has as its system serpentine leaf miner (Liriomyza trifolii). Kind of assay: Test Example 1: controlling effects against serpentine leaf miner, Example 1 dilution with polyoxyethylene alkyl ether phosphoric acid ester. The class given is in vivo. As to the method: (§1) The above components are mixed, and the obtained solution is diluted 2,000 times or 4,000 times with water containing a polyoxyethylene alkyl ether phosphoric acid ester, followed by spraying (active ingredient concentration: 25 ppm or 12.5 ppm).
Kidney bean planted in a pot having a diameter of 7 cm was put in a breeding case wherein adults of serpentine leaf miner (Liriomyza trifolii) were released and permitted to lay eggs for 2 days. Thereafter, the test plant was taken out and left for 1 day, and then, a water-diluted liquid containing 100 ppm or 250 ppm of the polyoxyethylene alkyl ether phosphoric acid ester prepared in the above Example 1, was sprayed twice on each of the front and rear sides of the Kidney bean leaf by means of a hand spray. After drying in air, the Kidney bean was left to stand for 5 days in an illuminated constant temperature chamber at 25° C., whereupon the number of pupae on each leaf was counted, and the protective value was calculated by the following formula. The test was repeated twice. As the polyoxyethylene alkyl ether phosphoric acid ester, PHOSPHANOL RD-510Y, PHOSPHANOL RS-610 and PHOSPHANOL RS-710 (manufactured by Toho Chemical Industry Co., Ltd.) and ADEKA COL PS-440E (manufactured by ADEKA) were used.
(§2) For the purpose of comparison, a water-diluted liquid having no polyoxyethylene alkyl ether phosphoric acid ester added, was prepared, and spray treatment was carried out in the same manner.
(§3) Protective value (%)=(1−(the number of pupae at treated section/the number of pupae at untreated section))×100

Assay [2] concerns serpentine leaf miner. Kind of assay: Test Example 2: controlling effects against serpentine leaf miner, Example 1 dilution with polyoxyethylene arylether phosphoric acid ester. The class given is in vivo, Liriomyza trifolii. As to the method:
as §1, §3
Kidney bean planted in a pot having a diameter of 7 cm was put in a breeding case wherein adults of serpentine leaf miner were released and permitted to lay eggs for 2 days. Thereafter, the test plant was taken out and left for 1 day, and then, a water-diluted liquid containing 50 ppm of a polyoxyethylene arylether phosphoric acid ester, prepared by replacing the polyoxyethylene alkyl ether phosphoric acid ester in the above Example 1 by a polyoxyethylene arylether phosphoric acid ester, was sprayed twice on each of the front and rear sides of the Kidney bean leaf by means of a hand spray. After drying in air, the Kidney bean was left to stand for 5 days in an illuminated constant temperature chamber at 25° C., whereupon the number of pupae on each leaf was counted, and the protective value was calculated in the same manner as in Test Example 1. The test was repeated twice. As the polyoxyethylene arylether phosphoric acid ester, and ADEKA COL CS-1361E (manufactured by ADEKA) was used.
For the purpose of comparison, a water-diluted liquid n having no polyoxyethylene arylether phosphoric acid ester added, was prepared, and spray treatment was carried out in the same manner.

In assay [3] the test system is serpentine leaf miner. Kind of assay: Test Example 3: controlling effects against serpentine leaf miner, liquid composition of Example 4 diluted with water. The class given is in vivo, Liriomyza trifolii. As to the method:
[…] of Compound 1 and 20.0 g of a polyoxyalkylene phosphoric acid ester surfactant are dissolved in 74.7 g of N,N-dimethylacetamide to obtain 100 g of a transparent liquid composition containing 5 wt % of Compound 1.
as §3
Kidney bean planted in a pot having a diameter of 7 cm was put in a breeding case wherein adults of serpentine leaf miner were released and permitted to lay eggs for 2 days. Thereafter, the test plant was taken out and left for 2 days, the liquid composition obtained in accordance with the above Example 4 was diluted with water to prepare a test liquid containing 50 ppm or 100 ppm of the polyoxyalkylene phosphoric acid ester surfactant. Each test liquid was a suspension solution having fine particles uniformly dispersed. The suspension solution was sprayed twice on each of the front and rear sides of the Kidney bean leaf by means of a hand spray. After drying in air, the Kidney bean was left to stand for 5 days in an illuminated constant temperature chamber at 25° C., whereupon the number of pupae on each leaf was counted, and the protective value was calculated in the same manner as in Test Example 1. The test was repeated twice. As the polyoxyalkylene phosphoric acid ester surfactant, ADEKA COL PS-440E (manufactured by ADEKA) and PHOSPHANOL RS-610 (manufactured by Toho Chemical Industry, Co., Ltd.) as polyoxyethylene alkyl ether phosphoric acid esters, and ADEKA COL CS-1361E (manufactured by ADECA) as a polyoxyethylene arylether phosphoric acid ester were used.
as §2

As to `CC(NC(=O)c1cc(Cl)cc(Br)c1NC(=O)c1cc(Br)nn1-c1ncccc1Cl)C1CC1` (stereo not drawn) [Compound 1, 3-Bromo-N-(2-bromo-4-chloro-6-(1-cyclopropylethylcarbamoyl)phenyl)-1-(3-chloropyridin-2-yl)-1H-pyrazole-5-carboxamide], the “Protective value (%)” value in assay [1] (Compound 1 12.5 ppm + PS-440E 100 ppm, foliar spray on Kidney bean, pupae counted after 5 days) is reported as 100%; in assay [1] (Compound 1 12.5 ppm + PS-440E 250 ppm, foliar spray on Kidney bean, pupae counted after 5 days), 100%; in assay [1] (Compound 1 12.5 ppm + RD-510Y 250 ppm, foliar spray on Kidney bean, pupae counted after 5 days) it was 70%; in assay [1] (Compound 1 12.5 ppm + RS-610 250 ppm, foliar spray on Kidney bean, pupae counted after 5 days), 100%; in assay [1] (Compound 1 12.5 ppm + RS-710 250 ppm, foliar spray on Kidney bean, pupae counted after 5 days) it was 100%; in assay [1] (Compound 1 12.5 ppm, no polyoxyethylene alkyl ether phosphoric acid ester (comparative section)), 0%. Further, the “Protective value (%)” value turned out to be 100% in assay [1] (Compound 1 25 ppm + PS-440E 100 ppm, foliar spray on Kidney bean, pupae counted after 5 days); 100% in assay [1] (Compound 1 25 ppm + PS-440E 250 ppm, foliar spray on Kidney bean, pupae counted after 5 days); 100% in assay [1] (Compound 1 25 ppm + RD-510Y 250 ppm, foliar spray on Kidney bean, pupae counted after 5 days); 100% in assay [1] (Compound 1 25 ppm + RS-610 250 ppm, foliar spray on Kidney bean, pupae counted after 5 days); 100% in assay [1] (Compound 1 25 ppm + RS-710 250 ppm, foliar spray on Kidney bean, pupae counted after 5 days); 0% in assay [1] (Compound 1 25 ppm, no polyoxyethylene alkyl ether phosphoric acid ester (comparative section)). Besides, the “Protective value (%)” value in the assay on serpentine leaf miner [2] (Compound 1 12.5 ppm + CS-1361E 50 ppm, foliar spray on Kidney bean, pupae counted after 5 days) came to 100%; in the assay on serpentine leaf miner [2] (Compound 1 12.5 ppm, no polyoxyethylene arylether phosphoric acid ester (comparative section)), 0%; with serpentine leaf miner [2] (Compound 1 25 ppm + CS-1361E 50 ppm, foliar spray on Kidney bean, pupae counted after 5 days) it was 100%; in the assay with serpentine leaf miner [2] (Compound 1 25 ppm, no polyoxyethylene arylether phosphoric acid ester (comparative section)), 50%; in the assay on serpentine leaf miner [3] (Compound 1 12.5 ppm + PS-440E 50 ppm (Example 4 composition), foliar spray on Kidney bean, pupae counted after 5 days), 77%; with serpentine leaf miner [3] (Compound 1 12.5 ppm + RS-610 50 ppm (Example 4 composition), foliar spray on Kidney bean, pupae counted after 5 days) it was 89%. Further, the “Protective value (%)” value is on record as 0% in the assay with serpentine leaf miner [3] (Compound 1 12.5 ppm, no polyoxyalkylene phosphoric acid ester surfactant (comparative section)); 100% in the assay on serpentine leaf miner [3] (Compound 1 25 ppm + CS-1361E 100 ppm (Example 4 composition), foliar spray on Kidney bean, pupae counted after 5 days); 46% with serpentine leaf miner [3] (Compound 1 25 ppm, no polyoxyalkylene phosphoric acid ester surfactant (comparative section)).

Values taken from patent publication US20110130427A1, “PESTICIDAL COMPOSITION” (ISHIHARA SANGYO KAISHA, LTD., priority 2008, published 2011).
